The values that follow come from patent US11992012B2, “Diaminotriazine compounds” (BASF SE, priority 2018, dated 2024).

Holding throughout (experiment): greenhouse pre-emergence herbicidal test
Type in all cases: in vivo
Details in all cases: 250 g/ha, scale 0 to 100

One assay has as its system Alopercurus myosuroides. The source says:
(§1) The culture containers used were plastic flowerpots containing loamy sand with approximately 3.0% of humus as the substrate. The seeds of the test plants were sown separately for each species.
(§2) For the pre-emergence treatment, the active ingredients, which had been suspended or emulsified in water, were applied directly after sowing by means of finely distributing nozzles. The containers were irrigated gently to promote germination and growth and subsequently covered with transparent plastic hoods until the plants had rooted. This cover caused uniform germination of the test plants, unless this had been impaired by the active ingredients.
(§3) Depending on the species, the plants were kept at 10-25° C. or 20-35° C., respectively.
(§4) The test period extended over 2 to 4 weeks. During this time, the plants were tended, and their response to the individual treatments was evaluated.
(§5) Evaluation was carried out using a scale from 0 to 100. 100 means no emergence of the plants, or complete destruction of at least the aerial moieties, and 0 means no damage, or normal course of growth. A moderate herbicidal activity is given at values of at least 60, a good herbicidal activity is given at values of at least 70, and a very good herbicidal activity is given at values of at least 85.

Another assay deals with Echinocloa crus-galli.
Excerpt: as §1, §2, §3, §4, §5

In another assay the test system is Setaria faberi. The source says:
The culture containers used were plastic flowerpots containing loamy sand with approximately 3.0% of humus as the substrate. The seeds of the test plants were sown separately for each species. For the pre-emergence treatment, the active ingredients, which had been suspended or emulsified in water, were applied directly after sowing by means of finely distributing nozzles. The containers were irrigated gently to promote germination and growth and subsequently covered with transparent plastic hoods until the plants had rooted. This cover caused uniform germination of the test plants, unless this had been impaired by the active ingredients. […] The test period extended over 2 to 4 weeks. During this time, the plants were tended, and their response to the individual treatments was evaluated. Evaluation was carried out using a scale from 0 to 100. 100 means no emergence of the plants, or complete destruction of at least the aerial moieties, and 0 means no damage, or normal course of growth.

The subject of another assay is Amaranthus retroflexus.
Excerpt: as §1, §2, §3, §4, §5

The structures appear in SMILES notation.

With `Nc1nc(Nc2c(F)ccc(F)c2OCc2ccccc2)nc(C2(F)CC2)n1` [Example 187], the results for the herbicidal activity in the assay with Alopercurus myosuroides, in the assay on Echinocloa crus-galli and in the assay with Setaria faberi were 85%, 100% and 100%, respectively.

Turning to `CC(C)=C(F)c1nc(N)nc(Nc2c(F)ccc(F)c2OCc2ccccc2)n1` [Example 160], the herbicidal activity with Alopercurus myosuroides was 85%; with Setaria faberi it was 75%.

On to `Cc1cccc(COc2c(F)cc(F)c(F)c2Nc2nc(N)nc(C(C)(C)F)n2)c1` [Example 182], for which the herbicidal activity in the assay with Alopercurus myosuroides, in the assay on Echinocloa crus-galli and with Setaria faberi was 100% in each case.

As for `Nc1nc(Nc2c(F)ccc(F)c2OCc2ccccc2)nc(C(F)C2CC2)n1` (stereo not shown) [Example 189], the herbicidal activity in the assay with Alopercurus myosuroides turned out to be 98%; in the assay on Echinocloa crus-galli, 100%; in the assay on Setaria faberi, 100%.

As to `COC(C)(C)c1nc(N)nc(Nc2c(F)c(F)cc(F)c2OCc2cccc(C)c2)n1` [Example 227], the herbicidal activity with Alopercurus myosuroides is recorded as 90%; in the assay with Echinocloa crus-galli, 75%; in the assay on Setaria faberi it was 85%.

For `Cc1ccccc1COc1c(F)cc(F)c(F)c1Nc1nc(N)nc(C(C)(C)F)n1` [Example 181], the herbicidal activity in the assay with Alopercurus myosuroides was found to be 98%; with Echinocloa crus-galli it was 100%; with Setaria faberi, 100%.

Turning to `COc1cccc(COc2c(F)cc(F)c(F)c2Nc2nc(N)nc(C(C)(C)F)n2)c1` [Example 164], the herbicidal activity in the assay on Alopercurus myosuroides, with Echinocloa crus-galli and in the assay with Setaria faberi was 100% each time.

For the compound `COc1ccc(COc2c(F)cc(F)c(F)c2Nc2nc(N)nc(C(C)(C)F)n2)cc1` [Example 180], the herbicidal activity stood at 90% in the assay with Alopercurus myosuroides, 100% in the assay with Echinocloa crus-galli and 100% in the assay with Setaria faberi.

For `CC(C)(F)c1nc(N)nc(Nc2c(F)cccc2OCc2ccc(F)c(F)c2)n1` [Example 45], the herbicidal activity turned out to be 80% in the assay on Alopercurus myosuroides, 80% with Echinocloa crus-galli and 70% in the assay with Setaria faberi.

With `CC(C)(F)c1nc(N)nc(Nc2c(F)cccc2OC(F)(F)c2ccccc2)n1` [Example 83], the herbicidal activity with Alopercurus myosuroides, in the assay on Echinocloa crus-galli and with Setaria faberi was 100% in each case.

For `CC(C)(F)c1nc(N)nc(Nc2c(F)cccc2OCc2ccc(Cl)s2)n1` [Example 120], the figures for the herbicidal activity with Alopercurus myosuroides, with Echinocloa crus-galli and in the assay with Setaria faberi were 75%, 100% and 90%, respectively.

`COc1cccc(COc2c(F)cc(F)c(F)c2Nc2nc(N)nc(C(C)(C)OC)n2)c1` [Example 215]: the herbicidal activity is listed as 100% with Amaranthus retroflexus, 98% with Echinocloa crus-galli and 98% in the assay with Setaria faberi.

Regarding `CCOc1ccc(COc2c(F)ccc(F)c2Nc2nc(N)nc(C(C)(C)F)n2)cc1` [Example 193], the figures for the herbicidal activity in the assay on Alopercurus myosuroides, with Echinocloa crus-galli and in the assay with Setaria faberi were 80%, 95% and 100%, respectively.

With `CC(C)(F)c1nc(N)nc(Nc2c(F)cccc2OCc2c(F)cccc2Cl)n1` [Example 177], the herbicidal activity in the assay on Alopercurus myosuroides is 85%; in the assay on Echinocloa crus-galli, 100%; in the assay with Setaria faberi, 95%.

`COc1ccc(COc2ccc(F)c(F)c2Nc2nc(N)nc(C(C)(C)F)n2)cc1` [Example 186]: the values for the herbicidal activity in the assay with Alopercurus myosuroides and in the assay on Echinocloa crus-galli were 85% and 98%, respectively.

On to `CC(C)(F)c1nc(N)nc(Nc2c(F)c(F)cc(F)c2OCc2ccccc2F)n1` [Example 203], for which the herbicidal activity in the assay on Alopercurus myosuroides, with Echinocloa crus-galli and with Setaria faberi was 100% each time.

For `CCOc1cccc(COc2cccc(F)c2Nc2nc(N)nc(C(C)(C)F)n2)c1` [Example 149], the herbicidal activity was found to be 85% in the assay with Alopercurus myosuroides, 75% with Echinocloa crus-galli and 90% in the assay with Setaria faberi.

In the case of `CC(C)(F)c1nc(N)nc(Nc2c(F)c(F)cc(F)c2OCc2ccccc2C2CC2)n1` [Example 218], the herbicidal activity in the assay with Alopercurus myosuroides amounted to 95%; in the assay with Echinocloa crus-galli, 85%; with Setaria faberi it was 100%.

As for `COc1cccc(COc2c(F)cc(F)c(F)c2Nc2nc(N)nc(C(C)F)n2)c1` (stereo not shown) [Example 211], the herbicidal activity with Amaranthus retroflexus, in the assay on Echinocloa crus-galli and in the assay on Setaria faberi was 100% in each case.

Turning to `COc1ccccc1COc1c(F)cc(F)c(F)c1Nc1nc(N)nc(C(C)F)n1` (stereo not shown) [Example 210], the herbicidal activity with Amaranthus retroflexus, in the assay with Echinocloa crus-galli and with Setaria faberi was 100% throughout.

Consider `CC(C)(F)c1nc(N)nc(Nc2c(F)cccc2OCc2c(Cl)cccc2Cl)n1` [Example 78], for which the results for the herbicidal activity in the assay with Alopercurus myosuroides, with Echinocloa crus-galli and with Setaria faberi were 100%, 100% and 75%, respectively.

Turning to `CC1(c2nc(N)nc(Nc3c(F)c(F)cc(F)c3OCc3ccccc3)n2)CCC1` [Example 201], the herbicidal activity in the assay on Alopercurus myosuroides, with Echinocloa crus-galli and with Setaria faberi was 100% each time.

On to `CC(F)c1nc(N)nc(Nc2c(F)c(F)cc(F)c2OCc2ccccc2)n1` (stereo not shown) [Example 209], for which the herbicidal activity with Amaranthus retroflexus, in the assay on Echinocloa crus-galli and in the assay on Setaria faberi was 100% in each case.

As to `COCc1ccc(COc2c(F)cc(F)c(F)c2Nc2nc(N)nc(C(C)(C)F)n2)cc1` [Example 220], the results for the herbicidal activity with Alopercurus myosuroides, in the assay with Echinocloa crus-galli and with Setaria faberi were 98%, 95% and 90%, respectively.

For `CCC(C)(F)c1nc(N)nc(Nc2c(F)c(F)cc(F)c2OCc2ccccc2)n1` (stereo not shown) [Example 247], the herbicidal activity in the assay with Amaranthus retroflexus, with Echinocloa crus-galli and with Setaria faberi was 100% each time.

Consider `COc1cc(F)cc(COc2cccc(F)c2Nc2nc(N)nc(C(C)(C)F)n2)c1` [Example 54], for which the herbicidal activity with Alopercurus myosuroides amounted to 90%; in the assay on Echinocloa crus-galli it was 100%.

On to `CC(C)(F)c1nc(N)nc(Nc2c(F)c(F)cc(F)c2OCc2ccc(F)cc2)n1` [Example 205], for which the herbicidal activity with Alopercurus myosuroides, in the assay with Echinocloa crus-galli and with Setaria faberi was 100% each time.

As for `Cc1cccc(C)c1COc1c(F)cc(F)c(F)c1Nc1nc(N)nc(C(C)F)n1` (stereo not shown) [Example 255], the herbicidal activity stood at 90% in the assay on Alopercurus myosuroides, 95% in the assay on Echinocloa crus-galli and 90% with Setaria faberi.

With `COC(C)c1nc(N)nc(Nc2c(F)c(F)cc(F)c2OCc2cccc(F)c2)n1` (stereo not shown) [Example 241], the herbicidal activity is 100% with Amaranthus retroflexus, 85% with Echinocloa crus-galli and 85% in the assay with Setaria faberi.

Consider `CC(C)(F)c1nc(N)nc(Nc2c(F)ccc(F)c2OCc2ccsc2)n1` [Example 174], for which the herbicidal activity in the assay on Alopercurus myosuroides, in the assay with Echinocloa crus-galli and in the assay with Setaria faberi was 100% throughout.

As for `CC(F)c1nc(N)nc(Nc2c(F)cccc2OC(F)(F)c2ccccc2)n1` (stereo not shown) [Example 171], the herbicidal activity in the assay on Amaranthus retroflexus was 100%; with Echinocloa crus-galli it was 85%; in the assay on Setaria faberi it was 100%.

As to `CC(F)c1nc(N)nc(Nc2c(F)ccc(F)c2OCc2ccccc2)n1` (stereo not shown) [Example 196], the herbicidal activity is 98% in the assay on Alopercurus myosuroides, 100% in the assay with Echinocloa crus-galli and 100% with Setaria faberi.

As to `COc1cccc(COc2ccc(F)c(F)c2Nc2nc(N)nc(C(C)(C)F)n2)c1` [Example 185], the results for the herbicidal activity in the assay on Alopercurus myosuroides, in the assay with Echinocloa crus-galli and with Setaria faberi were 98%, 100% and 100%, respectively.

As to `CC(C)(F)c1nc(N)nc(Nc2c(OCc3c(F)cccc3Cl)ccc(F)c2F)n1` [Example 176], the herbicidal activity is 80% in the assay on Amaranthus retroflexus, 100% in the assay with Echinocloa crus-galli and 100% in the assay on Setaria faberi.

With `Cc1cccc(COc2c(F)cc(F)c(F)c2Nc2nc(N)nc(C(C)F)n2)c1` (stereo not shown) [Example 230], the herbicidal activity in the assay with Amaranthus retroflexus, in the assay with Echinocloa crus-galli and in the assay with Setaria faberi was 95% each time.

`CC(C)C(F)c1nc(N)nc(Nc2c(F)cccc2OCc2ccccc2)n1` (stereo not shown) [Example 65]: the herbicidal activity in the assay on Alopercurus myosuroides and in the assay on Echinocloa crus-galli was 95% each time.

On to `COC(C)c1nc(N)nc(Nc2c(F)c(F)cc(F)c2OCc2cccc(C)c2)n1` (stereo not shown) [Example 238], for which the figures for the herbicidal activity in the assay on Amaranthus retroflexus, in the assay on Echinocloa crus-galli and with Setaria faberi were 80%, 98% and 100%, respectively.

For the compound `CC(C)(C)c1nc(N)nc(Nc2c(F)cccc2OCc2ccccc2)n1` [Example 33], the herbicidal activity is 75% with Alopercurus myosuroides and 60% in the assay with Echinocloa crus-galli.
